Measured values taken from ChEMBL document CHEMBL6121006, “Marine natural product-inspired discovery of novel BRD4 inhibitors with anti-inflammatory activity” (Eur J Med Chem, 2025).
Calls of active or inactive are those of the source. The calls are words filed in the database; no cut-off is given here.

Tests used:
[1] = target: Bromodomain-containing protein 3 (Homo sapiens) (UniProt Q15059); experiment: Inhibition of BRD3 BD2 (unknown origin) at 1 uM incubated for 2 hrs by TR-FRET assay relative to control
Mus musculus [2] = experiment: Antiinflammatory activity against LPS-induced C57BL/6 mouse acute inflammation model assessed as improvement of distorted hepatic lobular structure in liver at 50 to 100 mg/kg, po pre-administered for 2 hrs followed by LPS stimulation for 6 hrs; assay type: functional, organism-based; conditions: dose 50-100 mg/kg, time 8.0 hrs
[3] = Toxicity in C57BL/6 mouse effect on body weight at 100 mg/kg, po measured after 24 hrs; assay type: organism-based; conditions: in vivo
Mus musculus [4] = experiment: Antiinflammatory activity against C57BL/6 mouse acute inflammation model assessed as reduction in LPS induced lung edema at 50 to 100 mg/kg, po pre-administered for 2 hrs followed by LPS stimulation for 6 hrs; assay type: functional, organism-based; conditions: dose 50-100 mg/kg, time 8.0 hrs
[5] = target: Bromodomain-containing protein 4 (Homo sapiens, UniProt O60885); experiment: Induction of thermal stabilization of human recombinant BRD4 […] (42 to 167 residues) extracted from Escherichia coli BL21 (DE3) incubated for 30 mins by thermal shift assay
Mus musculus [6] = experiment: Antiinflammatory activity against LPS-induced C57BL/6 mouse acute inflammation model assessed as reduction of renal injury at 100 mg/kg, po pre-administered for 2 hrs followed by LPS stimulation for 6 hrs; assay type: functional, organism-based; conditions: time 8.0 hrs
RAW264.7 = experiment: Anti-inflammatory activity in mouse RAW264.7 cells assessed as inhibition of LPS-induced TNF-alpha expression preincubated with compound for 2 hrs followed by LPS stimulation and measured after 6 hrs by RT-qPCR analysis; assay type: functional, cell-based; conditions: dose 2.5-20 µM, time 8.0 hrs
[7] = Toxicity in C57BL/6 mouse effect on lung at 100 mg/kg, po measured after 24 hrs; assay type: organism-based; conditions: in vivo

Bromodomain-containing protein 3 (Homo sapiens), sequence (Q15059 2-726 limits assumed): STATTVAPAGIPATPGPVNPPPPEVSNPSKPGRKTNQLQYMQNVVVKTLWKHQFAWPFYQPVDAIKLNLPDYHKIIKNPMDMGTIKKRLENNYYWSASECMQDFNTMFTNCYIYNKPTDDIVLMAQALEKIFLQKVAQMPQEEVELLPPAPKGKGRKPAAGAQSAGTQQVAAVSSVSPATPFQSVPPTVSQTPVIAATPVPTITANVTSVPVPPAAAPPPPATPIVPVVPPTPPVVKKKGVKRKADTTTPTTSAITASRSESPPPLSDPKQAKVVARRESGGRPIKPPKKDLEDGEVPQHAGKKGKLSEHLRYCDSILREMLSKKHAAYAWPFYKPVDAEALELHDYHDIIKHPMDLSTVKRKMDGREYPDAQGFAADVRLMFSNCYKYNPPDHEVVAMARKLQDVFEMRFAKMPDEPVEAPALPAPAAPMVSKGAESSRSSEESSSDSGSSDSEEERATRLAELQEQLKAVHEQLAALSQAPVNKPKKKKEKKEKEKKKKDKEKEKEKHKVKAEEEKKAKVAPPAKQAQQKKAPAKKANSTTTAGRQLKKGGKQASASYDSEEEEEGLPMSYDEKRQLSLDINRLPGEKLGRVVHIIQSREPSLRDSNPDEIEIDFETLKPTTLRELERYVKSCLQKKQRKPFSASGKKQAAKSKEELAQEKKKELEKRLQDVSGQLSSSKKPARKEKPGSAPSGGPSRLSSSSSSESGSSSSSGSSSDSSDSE

- inhibition [1]: 44%
- Activity [5]: Active
SMILES: COc1ccc(/C=C/c2nc3cc(OC)cc(OC)c3c(=O)[nH]2)cc1
- Activity (Mus musculus [2]): Active
- Activity [3]: Non-toxic
- Activity (Mus musculus [4]): Active
- Activity (Mus musculus [6]): Active
- Activity (RAW264.7): Dose-dependent-effect
- Activity [7]: Non-toxic
